Results published in patent publication US20060121565A1, “Methods for increasing the production of a recombinant polypeptide from a host cell” (CYMIP A/S, priority 2002, published 2006).

T1: protease performing the cleavage of synthetic human CCK-33 to CCK-22 (metalloprotease, identified as Cym1p) (Saccharomyces cerevisiae, UniProt P32898)
T1 construct: endogenous in cells; host or cells: S. cerevisiae strain LJY123 (APE1, APE2, APE3 deleted; derived from Y14953), clarified crude cell extract
T1 sequence (P32898 17-989): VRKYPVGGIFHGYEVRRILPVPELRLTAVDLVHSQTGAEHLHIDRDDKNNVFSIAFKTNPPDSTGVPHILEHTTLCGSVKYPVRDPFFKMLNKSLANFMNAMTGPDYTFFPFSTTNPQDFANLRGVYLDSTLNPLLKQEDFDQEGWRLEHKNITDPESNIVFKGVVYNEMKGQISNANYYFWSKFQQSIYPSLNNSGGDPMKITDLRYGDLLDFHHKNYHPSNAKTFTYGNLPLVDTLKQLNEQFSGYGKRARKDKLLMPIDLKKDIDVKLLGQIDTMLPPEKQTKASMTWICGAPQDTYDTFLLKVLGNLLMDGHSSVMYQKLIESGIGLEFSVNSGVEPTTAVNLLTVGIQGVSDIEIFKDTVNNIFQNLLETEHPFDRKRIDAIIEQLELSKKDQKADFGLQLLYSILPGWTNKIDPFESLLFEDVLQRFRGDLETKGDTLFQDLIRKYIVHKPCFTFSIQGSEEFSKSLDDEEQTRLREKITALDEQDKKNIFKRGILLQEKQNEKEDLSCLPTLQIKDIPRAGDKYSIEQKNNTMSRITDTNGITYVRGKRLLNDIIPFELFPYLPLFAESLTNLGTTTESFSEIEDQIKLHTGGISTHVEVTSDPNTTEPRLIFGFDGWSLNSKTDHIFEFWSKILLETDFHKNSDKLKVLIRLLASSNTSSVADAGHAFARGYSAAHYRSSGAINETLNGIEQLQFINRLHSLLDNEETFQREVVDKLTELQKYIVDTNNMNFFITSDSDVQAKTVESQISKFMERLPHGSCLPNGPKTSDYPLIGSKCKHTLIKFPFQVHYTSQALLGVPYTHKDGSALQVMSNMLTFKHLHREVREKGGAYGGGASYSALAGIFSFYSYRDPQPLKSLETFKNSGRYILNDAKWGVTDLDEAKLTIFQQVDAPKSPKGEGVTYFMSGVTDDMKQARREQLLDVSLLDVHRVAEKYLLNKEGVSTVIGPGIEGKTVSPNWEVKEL

T2: Ac-CCK-33-Gly, P06307
T2 chain: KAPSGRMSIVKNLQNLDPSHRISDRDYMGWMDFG

B1: Saccharomyces cerevisiae Cym1p (protein)
chain: T1 sequence (P32898 17-989)

Key:
[1] = biological target: T1, protease performing the cleavage of synthetic human CCK-33 to CCK-22 (metalloprotease, identified as Cym1p); assay: In vitro protease assay: cleavage of synthetic CCK-33 to CCK-22 by crude yeast cell extract (LJY123); format: biochemical; conditions: extract from LJY123; 1 mM EDTA, 1 mM 1,10-orthophenanthroline; 30° C., 1 h
Protocol: FIG. 4. In vitro protease assay including inhibitors and activators. The fraction of CCK-22 was calculated from the immuno-reactivity using Ab 89009 divided by the total amount of mature and N-terminal extended CCK-22 measured with Ab 89009 after trypsin treatment. A, Effect of different inhibitors. B, Protease reactivation by addition of 1.2 mM divalent metal ions to extracts where the activity had been inhibited with 1 mM EDTA. The data represent mean±SD of three independent experiments.
FIG. 5. Protease reactivation by Zn^2+ and Mn^2+. […] The activity was measured as the fraction of matured CCK-22 after 30, 60 and 120 min incubation. The fraction of CCK-22 was calculated from the immuno-reactivity using Ab 89009 divided by the total amount of mature and N-terminal extended CCK-22 measured with Ab 89009 after trypsin treatment. […]
Two different antisera were used to determine the amount of processed cholecystokinin. […] The fraction of CCK processed to CCK-22 is calculated by division of the immuno-reactivity measured with Ab 89009 with the amount measured with the same antibody after the sample was treated with trypsin to measure the total amount of N-terminal extended CCK-22. […]
The nature of the protease performing the cleavage of synthetic human CCK-33 to CCK-22 was analysed by inclusion of a number of different inhibitors with the extract from LJY123. […]

Ac-CCK-33-Gly, P06307 = biological target: T2, Ac-CCK-33-Gly, P06307

| Molecule | inhibition of proteolysis of CCK-33 to CCK-22 [1] | rate of CCK-22 production in the in vitro protease assay (Ac-CCK-33-Gly, P06307) |
| --- | --- | --- |
| c1cnc2c(c1)ccc1cccnc12 [1,10 ortho-phenanthroline] | inhibited |  |
| O=C(O)CN(CCN(CC(=O)O)CC(=O)O)CC(=O)O [EDTA] | inhibited |  |
| B1 |  | Expression of CYM1 on a multicopy plasmid enhanced the rate of CCK-22 production several fold |
